Earlier results as cited in patent US10029116B2, “Method for the treatment of acne” (DUSA PHARMACEUTICALS, INC., priority 2012, dated 2018).

Experiments:
protoporphyrin IX = conditions: mouse skin
[1] = system: protoporphyrin IX in acne lesions

- time for protoporphyrin levels to return to near pretreatment baseline (protoporphyrin IX): about 18 hours
- time to peak protoporphyrin IX concentration (protoporphyrin IX): about six
- time by which the ability of light to excite protoporphyrin IX in acne lesions disappeared ([1]; no occlusive covering): ≤ 24 h
- persistence of the ability of light to excite protoporphyrin IX in skin having acne lesions ([1]; occlusive covering placed over the skin): ≤ 24 h
SMILES: NCC(=O)CCC(=O)O [ALA, aminolevulinic acid]
